Measurements from US11318190B2, “Methods and compositions for treating liver disease” (UNITED STATES GOVERNMENT AS REPRESENTED BY THE DEPARTMENT …, priority 2017, dated 2022).

Columns and labels:
WT mice = WT mice treated 1 wk with secretin: TGF-β1, fibrosis, cellular senescence; format: in vivo, mouse
Experimental: (§1) WT mice were treated for 1 wk with saline or secretin (Sct; 2.5 nmoles/kg body weight per day) before collecting cholangiocytes, HSCs and cholangiocyte supernatants. The levels of TGF-β1 were measured in short-term (6-hour) cultures of cholangiocytes by ELISA kits. Subsequently, we measured: (i) liver fibrosis by immunofluorescence for Col1a1 in liver sections and real-time PCR for TGF-β1, TFG-β1R, Col1a1, α-SMA and Fn1 in cholangiocytes and HSCs; and (ii) cellular senescence by immunofluorescence in liver sections for p16 and real-time PCR for p16 and p21 in cholangiocytes and HSC.

large IMCLs = assay: Large IMCLs treated with secretin with/without LY2109761, or with TGF-β1 (Example 2); format: cell-based, mouse; conditions: secretin 10 nM, 12 hr
From the text: Cholangiocytes were obtained by immunoaffinity separation as described herein above, using a monoclonal antibody (a gift from Dr. R. Faris, Brown University, Providence, R.I.) that is expressed by all intrahepatic cholangiocytes. HSCs from the selected groups of mice were isolated by LCM as described previously in Wu, N et al., The secretin/secretin receptor axis modulates liver fibrosis through changes in transforming growth factor-beta1 biliary secretion in mice, Hepatology (Baltimore, Md.) 64(3):865-879 (2016). Briefly, frozen liver sections (n=3, 10 μm thick) were incubated overnight with an anti-desmin (a marker of stellate cells) antibody. Then, desmin-positive cells were dissected from the slides using a LCM system Leica LMD7000 (Buffalo Grove, Ill.) and were collected before RNA extraction with the Arcturus PicoPure RNA isolation kit (Thermo Fisher Scientific CO, Mountain View, Calif.). The in vitro studies were performed in: (I) immortalized murine cholangiocyte lines derived from large cholangiocytes lining large ducts (IMCLs); and (ii) human hepatic stellate cell lines (HHSteCs; ScienCell Research Laboratories, Carlsbad, Calif.).
as §1
Biliary supernatants were obtained from normal and BDL WT mice and Sct^−/−, SR^−/− and Sct^−/−/SR^−/− BDL mice as well as normal WT mice treated with saline or secretin. HHSteCs were incubated with the aforementioned biliary supernatants (containing different levels of TGF-β1) for 24 hr (in the absence or presence of LY2109761) before measuring the expression of senescence and fibrosis genes by real-time PCR. Furthermore, HHSteCs were incubated with the supernatant of large IMCLs treated for 0.2% bovine serum albumin (basal) or secretin (10 nM) with/without LY2109761 for 6 hr before measuring the mRNA expression of fibrosis and senescence genes. To provide direct evidence that TGF-β1 directly modulates fibrosis and senescence of IMCLs and HHSteCs, these cells were stimulated with TGF-β1 (10 nM) for 24 hr before measuring the expression of PCNA as well as fibrosis and senescence genes by real-time PCR.

IMCLs = IMCLs treated with Sct with/without microRNA 125b mimic precursor, TGF-β1 or r-VEGFA (Example 4); format: cell-based, mouse; conditions: Sct 10 nM, 12 hr
Experimental: Cholangiocytes were obtained by immunoaffinity separation, Cholangiocytes were obtained by immunoaffinity separation as described herein above, using a monoclonal antibody (a gift from Dr. R. Faris, Brown University, Providence, R.I.) that is expressed by all intrahepatic cholangiocytes. Cell viability (greater than 97%) was assessed by trypan blue exclusion. HSCs were isolated by LCM as described herein above. Frozen liver sections (n=3, 10 μm thick) were incubated overnight with an antibody against desmin (marker of stellate cells). Following staining, desmin-positive HSCs were dissected from the slides by a LCM system Leica LMD7000 (Buffalo Grove, Ill.) and collected into a PCR tube before being analyzed. The RNA from HSCs was extracted with the Arcturus PicoPure RNA isolation kit (Thermo Fisher Scientific CO, Mountain View, Calif.). The in vitro studies were performed in our immortalized murine biliary cell lines (IMCLs) and human hepatic stellate cell lines (HHSteCs, Sciencell, Carlsbad, USA).
In biliary supernatants, the levels of TGF-β1 were measured by ELISA kits. […] We also evaluated by immunofluorescence the expression of VEGFR-2 in cell smears of IMCLs and HHSteCs. […]

Q: With secretin [Sct] as the substance, how does the “TGF-β1 levels in cholangiocyte supernatant” value (WT mice; secretin 2.5 nmoles/kg/day 1 wk vs saline) read?
A: enhanced levels

Q: What about the “biliary immunoreactivity of Collagen I and mRNA of TGF-β1, TFG-β1R, Col1a1, α-SMA, Fn1 in cholangiocytes and HSCs” value (WT mice; secretin 1 wk) of the same substance?
A: increased

Q: What about the “p16 immunoreactivity in liver sections, p16 and p21 expression in cholangiocytes” value (WT mice; secretin 1 wk) of the same substance?
A: enhanced

Q: What about the “p16 and p21 mRNA expression in isolated HSCs” value (WT mice; secretin 1 wk vs saline) of the same substance?
A: reduced

Q: And the “secretion of TGF-β1 and expression of fibrosis and senescence genes of large IMCLs” value (large IMCLs)?
A: increased

Q: And the “TGF-β1 mRNA expression of IMCLs and TGF-β1 levels in IMCLs supernatant” value (IMCLs)?
A: increased
